In BindingDB's records for PubMed 36327695 (n/a, 2022):
pIC50, pKi: −log10 of the molar value.

Legend:
Maltase-glucoamylase [1] = biological target: T1, Maltase-glucoamylase (Homo sapiens, UniProt O43451); assay: Inhibition of alpha-glucosidase (unknown origin) using pNPG as substrate preincubated with enzyme for 15 mins followed by substrate addition and measured after 10 mins by microplate reader analysis
Maltase-glucoamylase [2] = biological target: T1, Maltase-glucoamylase; assay: Non-competitive inhibition of alpha-glucosidase (unknown origin) using pNPG as substrate preincubated with enzyme for 15 mins followed by substrate addition and measured for 15 mins by Dixon plot analysis

T1 sequence (O43451 whole entry): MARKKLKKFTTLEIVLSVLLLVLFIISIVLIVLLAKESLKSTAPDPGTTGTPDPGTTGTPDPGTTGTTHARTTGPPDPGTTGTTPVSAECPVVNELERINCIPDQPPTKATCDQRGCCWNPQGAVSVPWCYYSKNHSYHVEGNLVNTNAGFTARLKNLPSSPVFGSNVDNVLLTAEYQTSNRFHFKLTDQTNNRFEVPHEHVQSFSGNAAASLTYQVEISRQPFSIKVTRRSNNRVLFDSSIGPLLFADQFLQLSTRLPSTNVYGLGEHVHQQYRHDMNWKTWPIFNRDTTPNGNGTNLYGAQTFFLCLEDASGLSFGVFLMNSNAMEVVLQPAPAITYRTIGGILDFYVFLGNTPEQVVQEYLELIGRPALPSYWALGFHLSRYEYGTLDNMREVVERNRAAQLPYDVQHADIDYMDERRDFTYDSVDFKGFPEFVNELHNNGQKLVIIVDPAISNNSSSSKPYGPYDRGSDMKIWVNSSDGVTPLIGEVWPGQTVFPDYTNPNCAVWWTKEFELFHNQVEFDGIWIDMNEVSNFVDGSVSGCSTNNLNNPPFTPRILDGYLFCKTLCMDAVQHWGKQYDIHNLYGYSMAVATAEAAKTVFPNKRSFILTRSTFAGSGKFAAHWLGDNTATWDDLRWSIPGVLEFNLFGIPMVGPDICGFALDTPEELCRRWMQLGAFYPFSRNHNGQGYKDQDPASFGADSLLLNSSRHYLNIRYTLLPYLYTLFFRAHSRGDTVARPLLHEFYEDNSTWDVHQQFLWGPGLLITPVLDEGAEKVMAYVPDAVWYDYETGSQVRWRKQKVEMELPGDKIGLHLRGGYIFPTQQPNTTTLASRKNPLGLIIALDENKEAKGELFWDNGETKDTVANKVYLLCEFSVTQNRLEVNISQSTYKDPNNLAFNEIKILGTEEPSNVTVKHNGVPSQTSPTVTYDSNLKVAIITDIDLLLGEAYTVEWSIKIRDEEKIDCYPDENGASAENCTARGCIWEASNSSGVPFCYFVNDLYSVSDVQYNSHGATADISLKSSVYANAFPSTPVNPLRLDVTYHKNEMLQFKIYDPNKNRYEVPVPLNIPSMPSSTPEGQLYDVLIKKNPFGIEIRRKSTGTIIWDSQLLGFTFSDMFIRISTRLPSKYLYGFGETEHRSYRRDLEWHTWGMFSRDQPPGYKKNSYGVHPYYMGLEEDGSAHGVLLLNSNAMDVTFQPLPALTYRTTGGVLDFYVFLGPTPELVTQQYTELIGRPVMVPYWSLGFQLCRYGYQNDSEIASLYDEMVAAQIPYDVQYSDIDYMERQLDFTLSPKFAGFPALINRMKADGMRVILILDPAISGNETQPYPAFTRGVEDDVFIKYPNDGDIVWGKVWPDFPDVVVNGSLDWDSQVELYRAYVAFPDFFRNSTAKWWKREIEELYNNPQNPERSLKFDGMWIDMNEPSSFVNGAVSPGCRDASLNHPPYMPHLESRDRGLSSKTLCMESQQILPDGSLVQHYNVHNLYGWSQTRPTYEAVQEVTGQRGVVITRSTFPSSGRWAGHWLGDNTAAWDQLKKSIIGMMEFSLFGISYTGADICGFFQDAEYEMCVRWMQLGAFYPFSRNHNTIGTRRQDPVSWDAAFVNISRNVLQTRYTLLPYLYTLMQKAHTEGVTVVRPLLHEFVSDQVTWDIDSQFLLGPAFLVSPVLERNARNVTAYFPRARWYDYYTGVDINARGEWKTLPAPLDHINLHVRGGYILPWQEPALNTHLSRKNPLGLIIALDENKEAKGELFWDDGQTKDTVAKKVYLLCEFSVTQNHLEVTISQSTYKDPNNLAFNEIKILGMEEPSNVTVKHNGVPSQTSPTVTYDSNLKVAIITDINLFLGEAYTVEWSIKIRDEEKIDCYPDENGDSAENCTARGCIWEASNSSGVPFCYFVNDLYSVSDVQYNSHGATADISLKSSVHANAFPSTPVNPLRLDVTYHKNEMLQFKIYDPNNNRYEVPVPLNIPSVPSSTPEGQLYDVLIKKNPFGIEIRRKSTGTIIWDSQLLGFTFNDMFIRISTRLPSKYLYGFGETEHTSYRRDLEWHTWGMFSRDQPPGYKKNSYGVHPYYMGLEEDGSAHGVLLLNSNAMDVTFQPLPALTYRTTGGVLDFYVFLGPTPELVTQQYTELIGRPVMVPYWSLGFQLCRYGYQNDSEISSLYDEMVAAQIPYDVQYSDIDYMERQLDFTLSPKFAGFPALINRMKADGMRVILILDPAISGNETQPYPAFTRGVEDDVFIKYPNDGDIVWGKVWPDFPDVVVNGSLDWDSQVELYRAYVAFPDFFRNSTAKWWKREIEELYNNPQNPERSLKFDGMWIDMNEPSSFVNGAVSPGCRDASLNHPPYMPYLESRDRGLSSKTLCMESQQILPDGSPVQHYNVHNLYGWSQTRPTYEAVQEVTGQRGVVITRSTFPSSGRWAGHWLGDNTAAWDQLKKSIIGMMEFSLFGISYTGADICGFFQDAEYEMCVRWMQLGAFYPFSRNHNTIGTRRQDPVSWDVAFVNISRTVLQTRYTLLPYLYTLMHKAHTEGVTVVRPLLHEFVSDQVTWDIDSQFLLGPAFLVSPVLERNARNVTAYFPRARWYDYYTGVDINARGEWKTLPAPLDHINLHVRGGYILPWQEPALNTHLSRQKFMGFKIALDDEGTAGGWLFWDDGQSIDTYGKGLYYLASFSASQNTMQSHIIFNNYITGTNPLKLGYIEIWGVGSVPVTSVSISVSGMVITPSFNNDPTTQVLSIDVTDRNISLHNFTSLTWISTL

pIC50 (Maltase-glucoamylase [1]) | pKi (Maltase-glucoamylase [2]) | SMILES
4.52 |  | C=CCc1cc(-c2ccc(O)c(CC=C)c2)c(O)c(C(c2ccc(OC)cc2)N2CCCCC2)c1 (configuration not stated)
4.63 |  | C=CCc1cc(-c2ccc(O)c(CC=C)c2)c(O)c(C(c2cc(Cl)cc(Cl)c2)N2CCCCC2)c1 (configuration not stated)
4.83 | 5.77 | C=CCc1cc(-c2ccc(O)c(CC=C)c2)c(O)c(C(c2cc(Cl)cc(Cl)c2)N2CCC(C)CC2)c1 (configuration not stated)
4.86 | 5.49 | C=CCc1cc(-c2ccc(O)c(CC=C)c2)c(O)c(C(c2cc(Cl)cc(Cl)c2)N2CCOCC2)c1 (configuration not stated)
4.73 |  | C=CCc1cc(-c2cc(CC=C)c(O)c(C(c3ccc(Cl)cc3)N3CCOCC3)c2)c(O)c(C(c2ccc(Cl)cc2)N2CCOCC2)c1 (configuration not stated)
